According to US11427548B2 (Arvinas Operations, Inc., priority 2015, dated 2022):
Where two headings read alike, the source gives them in different places.

Molecular target: T1, Androgen Receptor (Homo sapiens, UniProt P10275)
T1 construct: endogenous in cells; host or cells: VCaP cells
T1 sequence (P10275 1-920): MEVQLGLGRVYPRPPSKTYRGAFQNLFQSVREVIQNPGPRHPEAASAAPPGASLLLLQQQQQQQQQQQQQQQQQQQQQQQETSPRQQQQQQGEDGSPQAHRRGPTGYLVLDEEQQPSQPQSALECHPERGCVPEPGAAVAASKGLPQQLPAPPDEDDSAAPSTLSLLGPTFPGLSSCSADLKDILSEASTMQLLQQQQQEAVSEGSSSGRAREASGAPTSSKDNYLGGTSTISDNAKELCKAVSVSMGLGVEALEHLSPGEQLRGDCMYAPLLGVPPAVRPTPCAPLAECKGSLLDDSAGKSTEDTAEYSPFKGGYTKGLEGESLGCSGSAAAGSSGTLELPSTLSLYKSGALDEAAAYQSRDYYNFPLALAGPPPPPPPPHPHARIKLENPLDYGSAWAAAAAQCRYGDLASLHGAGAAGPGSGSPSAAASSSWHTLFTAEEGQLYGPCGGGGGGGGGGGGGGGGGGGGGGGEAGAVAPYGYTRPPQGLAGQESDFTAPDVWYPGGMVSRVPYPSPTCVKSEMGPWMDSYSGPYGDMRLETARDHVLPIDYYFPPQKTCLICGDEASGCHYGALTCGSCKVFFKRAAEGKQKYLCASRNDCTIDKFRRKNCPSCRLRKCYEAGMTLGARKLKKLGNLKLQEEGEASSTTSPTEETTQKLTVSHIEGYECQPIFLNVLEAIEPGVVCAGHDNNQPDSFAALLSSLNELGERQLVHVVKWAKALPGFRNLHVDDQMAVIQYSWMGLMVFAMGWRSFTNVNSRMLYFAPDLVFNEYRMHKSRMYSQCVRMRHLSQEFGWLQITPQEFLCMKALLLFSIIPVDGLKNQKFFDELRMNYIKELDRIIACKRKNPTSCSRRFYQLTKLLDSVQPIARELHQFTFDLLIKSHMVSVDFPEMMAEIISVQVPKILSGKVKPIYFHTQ
Assay: Androgen Receptor ELISA assay (PathScan AR ELISA) in VCaP cells: AR degradation, Dmax and DC50
Format: cell-based
Protocol: 1. Androgen Receptor ELISA Assay.
The protocols used with VCaP cells are described below. The androgen receptor ELISA assay was performed using PathScan AR ELISA (Cell Signaling Catalog #12850) according to the following assay steps:
VCaP cells are seeded at 30,000 cells/well at a volume of 200 μL/well in VCaP assay medium [Phenol red free RPMI (Gibco Cat #11835-030); 5% Charcoal Stripped (Dextran treated) FBS (Omega Scientific, Cat #FB-04); Pen/Strep Life Technologies (Gibco Cat #: 10378-016); 0.1 nM R1881 (Sigma, Cat #R0908) is added upon the start of the assay, not during initial plating of the cells) in Corning 3904 plates. The cells are grown for a minimum of 3 days.
First, cells are dosed with compounds diluted in 0.1% DMSO—use a polypropylene plate according to the following protocol: (1)(i) make 1000× stock plate in DMSO; (ii) 20 mM stock diluted 1/6.7 with DMSO (5 μL+28.3 μL DMSO)=3 mM into row H; (iii) perform serial dilutions in ½ log doses (10 μL of PROTAC+20 μL DMSO) from row H towards row B. Reserve row A for DMSO; (iv) 7 doses total (final concentration in this 1000× plate will be 3 mM, 1 mM, 333 μM, 111 μM, etc). (2)(i) Make 10× stock plate in media; (ii) transfer 2.5 μL of the 1000× stock to a new 10× stock plate (use 12 channel pipet, start at A (DMSO control) work thru H. When 247.5 μL of media is added to this plate, it will serve as a 10× stock; (iii) make media+1 nM R1881 for making 10× stock plate; (iv) add 247.5 μL of media with 1 nM R1881 to each well of the 10× stock plate, mix.
Then 22 μL of 10× stock is added to cells and incubated for 24 h. 1× Cell Signaling Cell lysis buffer is made (Catalogue #9803; comes with the kit)—prepare for 50 μL/well. Keep on ice. Media is aspirated, and 50 μL 1× cell lysis buffer/well is added. The cells are placed on ice for 10 minutes. The solution is mixed and transferred to PCR plate, and centrifuged at 4C for 10 minutes at 4000 rpm.
5 μL is transferred to fresh plate (use immediately or freeze −80 C); 115 μL ELISA Dilutant is added (0.15 ug/ml-0.075 ug/ml; comes with the PathScan ELISA).
Add 100 μL/well AR Elisa; cover and shake, 37 C for 2 hrs; dump, tap, wash 4×200 μL ELISA wash buffer; add 100 μL/well mouse AR detection Ab; cover and shake, 37 C for 1 hr; dump, tap, wash 4×200 μL ELISA wash buffer; add 100 μL/well anti-mouse—HRP conjugated Ab (comes with the kit); cover and shake, 37 C for 30 min; allow TMB reagent to come to room temperature; dump, tap, wash 4×200 μL Elisa wash buffer; tap; add 100 μL TMB, shake 5 min—while watching color. Add the stop reagent when light blue color develops. Add 100 μL Stop solution; shake and read at 450 nm.

[1] = read-out: VCaP DC50; VCaP cells; Table 36
[2] = VCaP cells; Table 36; read-out: VCaP DC50
[3] = VCaP cells; Table 35; read-out: VCaP DC50
[4] = VCaP, VCaP cells; Table 35; read-out: VCaP Dmax (%)
[5] = VCaP, VCaP cells; Table 36; read-out: VCaP Dmax (%)

How did the Dmax (VCaP, read-out: VCaP Dmax (%)) turn out when `Cc1cc(C(C(=O)N2C[C@H](O)C[C@H]2C(=O)NCc2ccc(Cl)cc2OCCOCCOCCOc2ccc(N3C(=S)N(c4ccc(C#N)c(C(F)(F)F)c4)C(=O)C3(C)C)cc2)C(C)C)on1` (stereo partly drawn) [Example 735, (2S,4R)-N-(4-chloro-2-(2-(2-(2-(4-(3-(4-cyano-3-(trifluoromethyl)phenyl)-5,5-dimethyl-4-oxo-2-thioxoimidazolidin-1-yl)phenoxy)ethoxy)eth-oxy)ethoxy)benzyl)-4-hydroxy-1-(3-methyl-2-(3-methylisoxazol-5-yl)butanoyl)pyrrolidine-2-carboxamide] was run?
The Dmax was less than 25%.

And the DC50 [1]?
Its DC50 is greater than 501 nM.

`Cc1ncsc1-c1ccc([C@H](C)NC(=O)[C@@H]2C[C@@H](O)CN2C(=O)[C@@H](NC(=O)CN2CCC(CN3CCN(c4ccc(C(=O)N[C@H]5C(C)(C)[C@H](Oc6ccc(C#N)c(Cl)c6)C5(C)C)cn4)CC3)CC2)C(C)(C)C)cc1` [Example 825, N-((1r,3r)-3-(3-chloro-4-cyanophenoxy)-2,2,4,4-tetramethylcyclobutyl)-6-(4-((1-(2-(((S)-1-((2S,4R)-4-hydroxy-2-(((S)-1-(4-(4-methylthiazol-5-yl)phenyl)ethyl)carbamoyl)pyrrolidin-1-yl)-3,3-dimethyl-1-oxobutan-2-yl)amino)-2-oxoethyl)piperidin-4-yl)methyl)piperazin-1-yl)nicotinamide] was tested. Which DC50 [2] did it give?
The DC50 was less than 50 nM.

What about the Dmax (VCaP, read-out: VCaP Dmax (%)) of the same molecule?
Its Dmax is greater than 71%.

`Cc1ncsc1-c1ccc([C@H](C)NC(=O)[C@@H]2C[C@@H](O)CN2C(=O)[C@@H](NC(=O)CN2C3CCC2CN(CCCc2ccc(C(=O)NC4C(C)(C)C(Oc5ccc(C#N)c(Cl)c5)C4(C)C)cc2)C3)C(C)(C)C)cc1` (stereo partly drawn) [Example 802, (2S,4R)-1-((2S)-2-(2-(3-(3-(4-(((1r,3r)-3-(3-chloro-4-cyanophenoxy)-2,2,4,4-tetramethylcyclobutyl)carbamoyl)phenyl)propyl)-3,8-diazabicyclo[3.2.1]octan-8-yl)acetamido)-3,3-dimethylbutanoyl)-4-hydroxy-N-((S)-1-(4-(4-methylthiazol-5-yl)phenyl)ethyl)pyrrolidine-2-carboxamide] was tested. Which “VCaP Dmax (%)” value (VCaP cells; Table 36) did it give?
Its value is “+++ (51% ≤ Dmax ≤ 70%)”.

And the DC50 [2]?
The DC50 was less than 50 nM.

For `C[C@H](NC(=O)[C@@H]1C[C@@H](O)CN1C(=O)[C@@H](NC(=O)COCCCOCCCCCOc1ccc(N2C(=S)N(c3ccc(C#N)c(C(F)(F)F)c3)C(=O)C2(C)C)cc1)C(C)(C)C)c1ccc(-c2nccn2C)cc1` [Example 452], which Dmax (VCaP, read-out: VCaP Dmax (%)) is on record?
Its Dmax is less than 25%.

And the DC50 (read-out: VCaP DC50; VCaP cells; Table 35)?
Its DC50 is greater than 501 nM.

What does the source list for `Cc1ncsc1-c1ccc([C@H](CN2CCCC2)NC(=O)[C@@H]2C[C@@H](O)CN2C(=O)[C@@H](NC(=O)COCCCCCOc2ccc(C(=O)N[C@H]3C(C)(C)[C@H](Oc4ccc(C#N)c(Cl)c4)C3(C)C)cc2)C(C)(C)C)cc1` [Example 465]?
DC50 [3]: < 50 nM; Dmax [4]: > 71%

`Cc1ncsc1-c1ccc([C@H](C)NC(=O)[C@@H]2C[C@@H](O)CN2C(=O)[C@H](C(C)C)n2cc(Oc3ccc(OC4CCC(Oc5ccc(N6C(=S)N(c7ccc(C#N)c(C(F)(F)F)c7)C(=O)C6(C)C)cc5)CC4)nc3)cn2)cc1` (stereo partly drawn) [Example 627, (2S,4R)-1-((S)-2-(4-((6-((4-(4-(3-(4-cyano-3-(trifluoromethyl)phenyl)-5,5-dimethyl-4-oxo-2-thioxoimidazolidin-1-yl)phenoxy)cyclohexyl)oxy)pyridin-3-yl)oxy)-1H-pyrazol-1-yl)-3-methylbutanoyl)-4-hydroxy-N-((S)-1-(4-(4-methylthiazol-5-yl)phenyl)ethyl)pyrrolidine-2-carboxamide] was tested. Which Dmax (VCaP, read-out: VCaP Dmax (%)) did it give?
The Dmax was 26 to 50%.

What about the DC50 [1] of the same molecule?
The DC50 was greater than 501 nM.

For `Cc1ncsc1-c1ccc([C@H](C)NC(=O)[C@@H]2C[C@@H](O)CN2C(=O)[C@@H](NC(=O)COc2ccc(OC3CCC(Oc4ccc(C(=O)N[C@H]5C(C)(C)[C@H](Oc6ccc(C#N)c(Cl)c6)C5(C)C)cc4)CC3)nc2)C(C)(C)C)cc1` (stereo partly shown) [Example 433], which DC50 [3] is on record?
The DC50 was less than 50 nM.

What about the Dmax [4] of the same molecule?
Its Dmax is 51 to 70%.

`Cc1ncsc1-c1ccc(CNC(=O)[C@@H]2C[C@@H](O)CN2C(=O)[C@@H](NC(=O)COCCCCOc2ccc(Oc3ccc(N4C(=S)N(c5cnc(C#N)c(C(F)(F)F)c5)C(=O)C4(C)C)cc3)cc2)C(C)(C)C)cc1` [Example 384] was tested. Which DC50 (VCaP cells; Table 34; read-out: VCaP DC50) did it give?
Its DC50 is less than 50 nM.

What about the Dmax (VCaP, VCaP cells; Table 34; read-out: VCaP Dmax (%)) of the same molecule?
Its Dmax is greater than 71%.

Which results are given for `Cc1ncsc1-c1ccc(CNC(=O)[C@@H]2C[C@@H](O)CN2C(=O)[C@@H](NC(=O)CN2CCC3(CC2)CCN(c2ccc(C(=O)N[C@H]4C(C)(C)[C@H](Oc5ccc(C#N)c(Cl)c5)C4(C)C)cn2)CC3)C(C)(C)C)cc1` [Example 672, N-((1r,3r)-3-(3-chloro-4-cyanophenoxy)-2,2,4,4-tetramethylcyclobutyl)-6-(9-(2-(((S)-1-((2S,4R)-4-hydroxy-2-((4-(4-methylthiazol-5-yl)benzyl)carbamoyl)pyr-rolidin-1-yl)-3,3-dimethyl-1-oxobutan-2-yl)amino)-2-oxoethyl)-3,9-diazaspiro[5.5]undecan-3-yl)nicotinamide]?
DC50 [2]: < 50 nM; Dmax [5]: 51 to 70%

`Cc1ncsc1-c1ccc(CNC(=O)[C@@H]2C[C@@H](O)CN2C(=O)[C@@H](NC(=O)COCCCCCOc2ccc(C(=O)N[C@H]3C(C)(C)[C@H](Oc4ccc(C#N)c(Cl)c4)C3(C)C)cc2)C(C)(C)C)cc1` [Example 151, (2S,4R)-1-[(2S)-3,3-dimethyl-2-(2-{[5-(4-{[trans-3-(3-chloro-4-cyanophenoxy)-2,2,4,4-tetramethylcyclobutyl]carbamoyl}phen-oxy)pentyl]oxy}acetamido)butanoyl]-4-hydroxy-N-{[4-(4-methyl-1,3-thiazol-5-yl)phenyl]methyl}pyrrolidine-2-carboxamide] was tested. Which Dmax (VCaP, highest percentage of Androgen Receptor degradation observed, VCaP cells (Table 32); read-out: VCaP Dmax (%)) did it give?
The Dmax was greater than 71%.

And the DC50 (concentration that caused 50% Androgen Receptor degradation, VCaP cells (Table 32); read-out: VCaP DC50)?
The DC50 was less than 50 nM.

How did the DC50 [2] turn out when `C/C(=N\OCCN1CCN(CC(=O)N[C@H](C(=O)N2C[C@H](O)C[C@H]2C(=O)N[C@@H](C)c2ccc(-c3scnc3C)cc2)C(C)(C)C)CC1)c1cc(C(=O)N[C@@H](C)Cn2ccc(-c3ccc(C#N)c(Cl)c3)n2)n[nH]1` [Example 864, N-((S)-1-(3-(3-Chloro-4-cyanophenyl)-1H-pyrazol-1-yl)propan-2-yl)-5-((E)-1-((2-(4-(2-(((S)-1-((2S,4R)-4-hydroxy-2-(((S)-1-(4-(4-methylthiazol-5-yl)phenyl)ethyl)carbamoyl)pyrrolidin-1-yl)-3,3-dimethyl-1-oxobutan-2-yl)amino)-2-oxoethyl)piperazin-1-yl)ethoxy)imino)ethyl)-1H-pyrazole-3-carboxamide] was run?
The DC50 was less than 50 nM.

And the Dmax [5]?
Its Dmax is less than 25%.
